Data published in PMC12880750, “Mechanistic insights and in vivo HIV suppression by the BRD4-targeting small molecule ZL0580” (PLOS Pathogens, 2026).
Where two headings read alike, the source gives them in different places.

What was measured:
[1] = system: BRD4-knockout (KO) J-Lat cells; experiment: RT-qPCR of differentially expressed genes, BRD4-KO J-Lat cells; assay type: cell-based, human; details: same treatments
Procedure: To validate the RNA-Seq results, RT-qPCR analysis was performed on a subset of differentially expressed genes (DEGs) (Fig 3E). Eight representative DEGs were selected based on statistical significance (adjusted p values) and their involvement in key pathways identified by GSEA, including lipid metabolism/cholesterol biosynthesis (HMGCS1, SQLE, DHCR7) and cytokine signaling (ITK and DUSP8). Relative gene expression levels were normalized to the housekeeping gene GAPDH. […] As an additional control, RT-qPCR was also performed on RNA isolated from BRD4-knockout (KO) J-Lat cells that received the same treatments. The generation and characterization of BRD4-KO J-Lat cells were described previously.
RT-qPCR was performed as previously reported.

[2] = In vivo toxicity study in ICR mice; design: key to Detail clinical observation during administration period (symptom number): 01. normal; 02. Cavity to observe; 03. Discolored skin; 04. Salivation; 05. Emesis; 06. Lacrimation; 07. ptosis; 08.Decreased respira tion; 09. Increased respiration; 10. anhelation; 11. Ataxia; 12. Loose stools; 13. Limb’s tremor; 14. Ey e; 15.Weakness; 16. Hyperreactivity; 17. Emaciation; 18. Whole body touch; 19. Cough; 20. At the injection site; 21. Alopecia genitalized; 22. convulsion; 23. Corna; 24. Death; key to Necropsy macroscopic (all organs examined): –: normal-; slight +; midrange ++; severe ++++; details: for Detail clinical observation during administration period (symptom number): all 10 animals (5 F, 5 M), Day 1 (twice) to Day 7; for Necropsy macroscopic (all organs examined): all organs listed
Procedure: The acute toxicity studies were performed in both male and female ICR mice. The mice were divided into 3 groups (each group, n = 10, 5 males and 5 females). Group 1 was the vehicle group without ZL0580 treatment (po, 20% DMA + 20% Solutol HS15 + 60% HP-β-CD (20%, w/v)). Group 2, and group 3 mice were orally administrated with ZL0580 at doses of 100 mg/kg and 300 mg/kg [in 20% Dimethyl Acetamide (DMA) + 20% Solutol HS15 + 60% HP-β-CD (20%, w/v)], respectively. The body weights of all mice were weighed on day 1, 3, and 7 after treatments. The mean body weights of all mice in each group were calculated, and the standard curves were generated with the mean body weights of each group mice at different recorded time points. The food consumption masses of each group mice were recorded on day 1, 2, 3, 4, and 5 after treatments. The mean food consumption of all mice in each group was calculated, and the standard curves were generated with the mean food consumption of each group at different recorded time points.

[3] = system: BRD4 BD1; experiment: In vitro binding affinity (TR-FRET), BRD4 BD1; design: species or system human; details: from IC50 BD1 and BD2
[4] = In vivo pharmacokinetics in ICR mice; design: species or system male ICR mice; details: mouse, plasma
Procedure: Animal experiments assessing PK and in vivo toxicity profile of ZL0580 was performed by the contracting research organization (CRO) Sundia. The studies were performed according to the NIH Guide for Care and Use of Experimental Animals. The PK studies of ZL0580 was performed using male ICR mice (18–22 g). The mice were randomly divided into two groups (n = 3). The mice of the group 1 were intravenously administrated with ZL0580 [10 mg/kg, in 10% DMSO + 10% Solutol HS 15 + 80% HP-β-CD (20%, w/v)] and the mice of the group 2 were orally administrated with ZL0580 [20 mg/kg, in 10% DMSO + 90% HP-β-CD (20%, w/v)]. Blood samples of group 1 and group 2 mice were collected at the indicated time points post treatment and put into heparinized centrifugation tubes, which were centrifuged under the condition of 6800 rpm and 4 °C for 6 min. The supernatant was collected and stored at -20 °C for further LC-MS analysis. Before the plasma concentrations (AUC) were determined, standard curves were generated with various concentrations of ZL0580 and the internal standard (IS). All PK parameters were calculated with WinNonlin 6.4 software.

[5] = target: T1, BRD4 BD1 E151A (Homo sapiens, UniProt O60885, E151A); experiment: Thermal shift assay (TSA/DSF), BD1 E151A mutant; assay type: binding; details: eight increasing concentrations
T1 construct: Constructs used for mutagenesis, including wild-type BD1 (BD1 WT), BD1 with an E151A mutation (BD1 E151A), and wild-type BD2 (BD2 WT); GST (cleaved yes); made in house
Procedure: The melting temperatures shifts (ΔTm) were measured and the ΔTm curves as a function of compound-to-protein ratios were generated (Fig 2B–2C). […] As an additional control, the Tm of WT BD1 and E151A mutant in the absence of compound was also measured by TSA.
Plasmid construction and subsequent protein expression and purification of BRD4 proteins were performed using OverExpress C43(DE3) bacterial competent cells (Lucigen) as described in our previous studies. In brief, 12 L of bacterial cultures grown to OD600 between 0.6-0.8 were induced at 37°C for 4 h by 1 mM isopropyl […] (IPTG). Bacterial sonication supernatant in the lysis buffer (500 mM NaCl, 20 mM Tris-HCl pH 7.9 at 4°C, 20% glycerol, 1 mM EDTA, 0.2 mM DTT, and protease inhibitors) was incubated with glutathione (GSH) agarose beads (GOLDBIO, G-250–100) overnight with rotation at 4°C. The protein-bound GSH beads were washed three times with the lysis buffer and digested with human rhinovirus 3C protease (HRV-P3C; Thermal Fisher 88946) at 4°C for 4 h, according to the manufacture’s procedure, to remove GST tag from BD1/2 proteins. Untagged BRD4-BD1 and -BD2 were separated from HRV-P3C via passing through a HiTrap Q HP anion exchange chromatography column (GE Healthcare, GE17-1154-01) and eluted by a salt gradient from 100 mM to 1 M NaCl. […]

[6] = ICR mice, 100 mg/kg or 300 mg/kg daily for 7 days
[7] = ICR mice, 100 mg/kg or 300 mg/kg, end of the study

For O=C(Nc1ccc(C(F)(F)F)cc1)Nc1ccc(S(=O)(=O)N2CCC[C@H]2C(=O)Nc2ccccc2)cc1 [ZL0580], which “Contrasting regulatory effects on representative DEGs in the absence of BRD4” value [1] is on record?
Its value is “largely abolished”.

What about the “Detail clinical observation during administration period (symptom number)” value ([2]; Group 2, 100 mg/kg PO) of the same compound?
Its value is 01.

And the “Necropsy macroscopic (all organs examined)” value ([2]; Group 2, 100 mg/kg PO, all 10 animals)?
The value was “–”.

What about the “Detail clinical observation during administration period (symptom number)” value ([2]; Group 3, 300 mg/kg PO) of the same compound?
Its value is 01.

What about the “Necropsy macroscopic (all organs examined)” value ([2]; Group 3, 300 mg/kg PO, females 801-805 shown) of the same compound?
Its value is “–”.

And the Tolerability in vivo ([2]; ICR mice, 100 mg/kg or 300 mg/kg PO daily for 7 days)?
Its Tolerability in vivo is “well tolerated”.

And the “Changes in body weights” value [2, 6]?
Its value is “little to no changes”.

What about the “Changes in food consumption” value [2, 6] of the same compound?
Its value is “little to no changes”.

And the “Necropsy and gross pathological examinations” value [2, 7]?
Its value is “no abnormalities”.

What about the Serum biochemistry [2, 7] of the same compound?
Its Serum biochemistry is “no abnormalities”.

What about the “Clinical signs of toxicity” value ([2]; ICR mice, 100 mg/kg or 300 mg/kg, throughout the study) of the same compound?
Its value is “No clinical signs of toxicity were observed”.

And the “Selectivity (BRD4 BD1 vs BD2)” value [3]?
The value was “about 7 fold”.

And the AUC(0-t) ([4]; male, IV, 10 mg/kg, ICR mice)?
The AUC(0-t) was 14400 ± 3470 ng·h/mL.

And the AUC(0-inf) ([4]; male, IV, 10 mg/kg, ICR mice, read-out: AUC0-∞)?
The AUC(0-inf) was 14400 ± 3470 ng·h/mL.

What about the Cmax ([4]; IV (10 mg/kg), male ICR mice) of the same compound?
The Cmax was 19300 ± 2790 ng/mL.

And the MRT inf ([4]; IV (10 mg/kg), male ICR mice)?
Its MRT inf is 0.73 ± 0.12 h.

And the clearance ([4]; IV (10 mg/kg), male ICR mice)?
Its clearance is 12 mL/min/kg.

What about the half-life ([4]; IV (10 mg/kg), male ICR mice) of the same compound?
Its half-life is 0.91 ± 0.06 h.

And the Vd ([4]; IV (10 mg/kg), male ICR mice, read-out: Vz)?
Its Vd is 0.95 ± 0.28 L/kg.

And the AUC(0-t) ([4]; PO (20 mg/kg), male ICR mice)?
Its AUC(0-t) is 5590 ± 1880 ng·h/mL.

What about the Cmax ([4]; PO (20 mg/kg), male ICR mice) of the same compound?
The Cmax was 1470 ± 186 ng/mL.

What about the MRT inf ([4]; PO (20 mg/kg), male ICR mice) of the same compound?
Its MRT inf is 3.18 ± 1.39 h.

And the half-life ([4]; PO (20 mg/kg), male ICR mice)?
Its half-life is 2.54 ± 2.24 h.

What about the AUC(0-inf) ([4]; PO (20 mg/kg), male ICR mice, read-out: AUC0-inf) of the same compound?
Its AUC(0-inf) is 5800 ± 2120 ng·h/mL.

What about the “Effect on stability of BD1 E151A mutant (TSA)” value [5] of the same compound?
The value was “almost no effect”.
